# Test results as given in PMC5802278, “Molecular and cellular mechanisms of HIF prolyl hydroxylase inhibitors in clinical trials” (Chemical Science, 2017).
# Like-named read-outs stand apart in the source and are kept apart here.
# Tests used:
# [1] = system: hypoxia response element (HRE) firefly luciferase reporter in HT1080 cells; test: HRE luciferase reporter assay; type: cell-based; conditions: for EC50: Homo sapiens
# Description: HT1080 cells were stably transfected with a construct containing a firefly luciferase gene under the control of 5 tandem copies of the sequence: […] (which contains the hypoxia response element (HRE) 3′ to the mouse erythropoietin gene) linked to a ‘minimal’ SV40 promoter.
# HT1080P8 cells (25 000–30 000) were seeded into 96-well plates (100 μL per well) overnight to enable cell adhesion. […] The medium was removed and cells washed with PBS. Luciferase signal was measured using Luciferase Assay System kit from Promega (E1500) following the manufacturer's protocol with a FLUOstar Omega Microplate Reader (BMG Labtech).
# [2] = molecular target: PHD2 catalytic domain (residues 181-426) (Homo sapiens, UniProt Q9GZT9); test: NMR competition assays (2OG, CODD, NODD displacement); type: binding; design: The catalytic domain of human PHD2 (residues 181-426) was used in all; made in house; conditions: for 2OG displacement: inhibitor at 400 μM, PHD2 at 10 μM, 1H CPMG
# Description: 2OG displacement experiments were monitored by CPMG-edited 1H NMR using a Bruker […]
# supplemented with 60 µM Zn(II) and increasing concentrations of the inhibitors from a […]
# (90°x−[τ−180°y−τ−90°y−τ−180°y−τ]n−acq), was applied. Typical experimental parameters were […]
# suppression was achieved by presaturation.
# For 13C-CODD and […] displacement experiments, 1D Clean In-Phase (CLIP) HSQC with selective 13C-inversion displacement experiments were conducted using a Bruker AV700 instrument. 3 mm MATCH NMR tubes were used (Cortecnet). All experiments were […]
# prolyl-ring. 7 The CLIP-HSQC sequence was used for 1D HSQC experiments (without 13C decoupling).8 Relaxation delay was 2s. The 1JCH was set to 160 Hz. A 6.8 ms Q3.1000 180 degree pulse was used and selective irradiation was applied at the selected chemical shift. […]
# PHD3 = PHD3 (Homo sapiens, UniProt Q9H6Z9); test: MALDI-TOF MS PHD hydroxylation assay; type: biochemical
# Description: (§1) Protocols for in vitro PHD1–3 MALDI-TOF MS hydroxylation assays[30] and for the AlphaScreen histone demethylase assays[44] were as reported.
# (§2) Although sharing homologous C-terminal catalytic domains, the N-terminal regions of PHD1–3 vary. […] In vitro inhibition assays of the clinical trial PHD inhibitors (and some of their structurally related analogue) against 1 μM recombinant human PHD1–3 were performed.
# (§3) Fig. S11. In vitro PHD isoform selectivity profiling of PHD inhibitors. Inhibition of PHD inhibitors against human PHD125 -3 as assayed by MALDI-TOF MS (the protocol is described in Chan et al. ). Eight concentrations were used to obtained dose-response curve for each compound. Data points presented in the graph are mean with standard deviation, n=3. IC50 values (listed in Supplemental Table S3) were calculated using GraphPad Prism® 5.04.
# (§4) (1 picture or pasted object on this page, not shown here)
# PHD1 = PHD1 (Homo sapiens, UniProt Q96KS0); test: MALDI-TOF MS PHD hydroxylation assay; type: biochemical
# Description: as §1, §2, §3, §4
# [3] = 1D-selective HSQC with selective 13C inversion
# [4] = 1μM isolated recombinant human PHD3, MALDI-TOF MS, read-out: IC50 PHD3
# [5] = 1μM isolated recombinant human PHD1, MALDI-TOF MS, read-out: IC50 PHD1
# [6] = HT-1080, 16 h, read-out: EC50 HRE luciferase reporter
# Sequence of PHD3 (Q9H6Z9 whole entry): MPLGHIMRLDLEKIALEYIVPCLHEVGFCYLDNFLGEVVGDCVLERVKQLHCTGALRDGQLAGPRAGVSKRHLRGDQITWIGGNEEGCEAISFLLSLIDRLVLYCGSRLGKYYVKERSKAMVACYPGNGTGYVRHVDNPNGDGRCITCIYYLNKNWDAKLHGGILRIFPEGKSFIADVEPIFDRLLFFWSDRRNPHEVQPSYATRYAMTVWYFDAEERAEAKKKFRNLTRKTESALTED
# Sequence of PHD2 catalytic domain (residues 181-426) (Q9GZT9 181-426): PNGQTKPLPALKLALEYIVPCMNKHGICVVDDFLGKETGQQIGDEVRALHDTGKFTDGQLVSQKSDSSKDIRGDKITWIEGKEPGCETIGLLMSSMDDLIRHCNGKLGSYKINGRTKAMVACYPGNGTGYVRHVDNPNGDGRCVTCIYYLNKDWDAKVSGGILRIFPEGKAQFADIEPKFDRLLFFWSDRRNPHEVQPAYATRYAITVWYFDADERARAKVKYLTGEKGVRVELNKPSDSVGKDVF
# Sequence of PHD1 (Q96KS0 whole entry): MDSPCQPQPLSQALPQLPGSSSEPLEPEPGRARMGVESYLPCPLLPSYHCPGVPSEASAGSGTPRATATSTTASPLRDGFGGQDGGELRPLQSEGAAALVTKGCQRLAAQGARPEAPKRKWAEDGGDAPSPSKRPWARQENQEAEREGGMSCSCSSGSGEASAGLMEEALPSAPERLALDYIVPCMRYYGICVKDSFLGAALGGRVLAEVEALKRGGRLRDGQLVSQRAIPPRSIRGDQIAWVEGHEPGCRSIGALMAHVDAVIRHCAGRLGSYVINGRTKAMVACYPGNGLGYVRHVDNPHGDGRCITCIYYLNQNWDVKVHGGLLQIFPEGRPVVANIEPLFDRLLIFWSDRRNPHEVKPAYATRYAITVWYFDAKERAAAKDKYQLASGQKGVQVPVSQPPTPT
Compound,"EC50 ([1]; HT-1080, 6 h, read-out: EC50 HRE luciferase reporter, HT1080 cells, 6 hours treatment) [µM]","EC50 ([1]; HT-1080, 16 h, read-out: EC50 HRE luciferase reporter, HT1080 cells, 16 hours treatment) [µM]","EC50 ([1]; HT-1080, 24 h, read-out: EC50 HRE luciferase reporter, HT1080 cells, 24 hours treatment) [µM]","13C-CODD displacement [2, 3]","13C-NODD displacement [2, 3]",2OG displacement [2],IC50 (PHD3; [4]) [µM],IC50 (PHD1; [5]) [µM],"Emax in HRE luciferase reporter assay ([1]; HT1080 cells, 16 hours)","concentrations at which the luciferase signals were reduced ([1]; HT1080 cells, 16 hours) [µM]","EC50 [1, 6] [µM]",IC50 (PHD3) [µM],IC50 (PHD1) [µM],"EC50 ([1]; HT-1080, HT1080 cells, 16 hours treatment, read-out: EC50 HRE luciferase reporter) [µM]","EC50 ([1]; HT-1080, 6 h, read-out: EC50 HRE luciferase reporter) [µM]","EC50 ([1]; HT-1080, 24 h, read-out: EC50 HRE luciferase reporter) [µM]"
Cc1nc(C(=O)NCC(=O)O)c(O)c2ccc(Oc3ccccc3)cc12 [FG-4592],3,7,7,efficiently displaced CODD,clearly displaced NODD,completely displaced 2OG,1.32,1.4,–,–,–,–,–,–,–,–
O=C(O)CNC(=O)C1C(=O)N(C2CCCCC2)C(=O)N(C2CCCCC2)C1=O [GSK1278863],–,–,–,–,–,–,–,–,lowest observed Emax,> 33,0.8,0.61,1.5,–,–,–
CC(C)(C)OC(=O)c1ccc(-n2[nH]cc(-n3ccnn3)c2=O)nc1 [IOX4],–,–,–,–,clearly displaced NODD,completely displaced 2OG,0.69,0.55,–,> 33,0.8,–,–,–,–,–
O=c1c(-n2ccnn2)c[nH]n1-c1cc(N2CCOCC2)ncn1 [Molidustat],–,–,–,–,barely detectable,completely displaced 2OG,0.72,1.45,–,> 33,–,–,–,2.1,–,–
O=C(O)CNC(=O)c1ncc(-c2cccc(Cl)c2)cc1O [Vadadustat],–,–,–,–,clearly displaced NODD,completely displaced 2OG,0.26,0.84,–,–,41,–,–,–,15.7,37
